What all share (format): biochemical
In assay [1] the target is T1, MTGase (transglutaminase of guinea pig liver) (UniProt P08587).
T1 construct: The guinea pig liver-derived transglutaminase was prepared by the method described in Connellan et al; from tissue; host or cells: guinea pig liver
T1 sequence (P08587 2-690 limits assumed): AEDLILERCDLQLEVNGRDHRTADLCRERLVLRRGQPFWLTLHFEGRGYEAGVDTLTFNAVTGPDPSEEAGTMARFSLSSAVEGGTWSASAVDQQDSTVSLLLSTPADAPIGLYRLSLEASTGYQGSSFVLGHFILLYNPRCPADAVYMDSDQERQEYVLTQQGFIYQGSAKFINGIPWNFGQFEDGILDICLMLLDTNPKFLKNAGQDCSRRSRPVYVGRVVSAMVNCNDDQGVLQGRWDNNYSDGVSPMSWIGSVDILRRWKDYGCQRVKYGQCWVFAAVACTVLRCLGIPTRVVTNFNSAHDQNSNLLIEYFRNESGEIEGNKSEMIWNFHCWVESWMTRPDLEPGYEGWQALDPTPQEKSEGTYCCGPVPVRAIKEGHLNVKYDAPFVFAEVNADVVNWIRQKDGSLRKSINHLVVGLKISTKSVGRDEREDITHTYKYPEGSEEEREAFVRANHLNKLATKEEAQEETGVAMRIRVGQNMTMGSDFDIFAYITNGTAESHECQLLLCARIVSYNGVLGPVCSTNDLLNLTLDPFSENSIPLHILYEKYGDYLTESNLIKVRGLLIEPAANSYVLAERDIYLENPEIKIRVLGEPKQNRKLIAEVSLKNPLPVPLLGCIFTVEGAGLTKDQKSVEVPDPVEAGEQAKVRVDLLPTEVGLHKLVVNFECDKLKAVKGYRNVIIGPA
The assay is described as follows: Influence of Ca2+ on activity. The protocol:
(§1) Measurement of the activity of BTGase is carried out by performing a reaction using benzyloxycarbonyl-L-glutaminyl glycine and hydroxylamine as substrates in the absence of Ca^2+, forming an iron complex with the resulting hydroxamic acid in the presence of trichloroacetic acid, measuring absorption at 525 nm and determining the amount of hydroxamic acid by a calibration curve to calculate the activity. The BTGase activity is measured by the method described below, unless otherwise indicated.
(§2) To 0.05 ml of an enzyme solution is added 0.5 ml of Reagent A and they are mixed with each other. After reacting at 37° C. for 10 minutes, Reagent B is added thereto to discontinue the reaction and form an Fe complex. Thereafter, absorbance is measured at 525 nm. As a control, absorbance is measured after reacting a previously thermally inactivated enzyme solution in a similar manner and a difference in absorbance between the control and the enzyme solution is measured. Separately, a calibration curve is prepared using L-glutamic acid γ-monohydroxamic acid instead of the enzyme solution, and the amount of hydroxamic acid produced is determined by the difference in absorbance described above. An enzyme activity which produces 1 μmol of hydroxamic acid per 1 minute is defined as 1 unit.
Next, properties of BTGases are compared to those of guinea pig liver-derived transglutaminase. […]

In assay [2] the target is T1, MTGase (transglutaminase of guinea pig liver). The assay is described as follows: Substrate specificity: reaction of synthetic substrates with hydroxylamine. The conditions noted are these: Table 9; CBZ-Gln-Gly = 100. The protocol:
as §1, §2
(§3) Using each BTGase, reactions of various synthetic substrates with hydroxylamine were examined. […] In this case, the concentration of various synthetic substrates is 5 mM. In the table, CBZ, Gln, Gly and Asn are abbreviations for benzyloxycarbonyl group, glutaminyl group, glycyl group and asparaginyl group, respectively.
Next, properties of BTGases are compared to those of guinea pig liver-derived transglutaminase. The guinea pig liver-derived transglutaminase was prepared by the method described in Connellan et al., Journal of Biological Chemistry, Vol. 246, No. 4, pp. 1093-1098 (1971). As will be apparent from Tables 9 and 10, various differences in enzymological properties are noted between transglutaminase of guinea pig liver (hereafter, referred to as MTGase) which has been mainly investigated heretofore and BTGases derived from the genus Streptomyces: in particular, differences are noted in temperature stability, molecular weight, isoelectric point and substrate specificity. Further, a difference is noted in that the BTGases of the present invention act in the presence and absence of Ca^2+. Therefore, the respective enzymes of the present invention are different from MTGase in their properties.

The test system of assay [3] is Enzyme No. 466 (transglutaminase of Streptomyces lavendulae No. 466). The assay is described as above. The protocol: as §1, §2, §3
Assay [4] relates to Enzyme No. 83 (transglutaminase of Streptomyces sp No. 83). Described as above. The protocol: as §1, §2, §3
Setting [5] is: Table 6, synthetic substrate 5 mM, CBZ-Gln-Gly = 100.
The mark [6] stands for this setting: substrate 5 mM, text says BTGase (both enzymes).

Peptide text beside a SMILES is read from it.

`[Ca+2].[Cl-].[Cl-]` [CaCl2]: the “Activity of MTGase (%)” value was found to be 39% in assay [1] (1 mM CaCl2) and 100% in assay [1] (5 mM CaCl2).

As to `NCC(=O)N[C@@H](CCC(N)=O)C(=O)NCC(=O)O` [Gly--Gln--Gly, glycylglutaminyl glycine] (H-Gly-Gln-Gly-OH), the “Substrate specificity (%), MTGase” value in assay [2] worked out at 0%. The “Substrate specificity, Enzyme No. 466 (reactivity of substrate with hydroxylamine)” value in assay [3] (setting [5]) turned out to be 0. In assay [3] (Table 9, CBZ-Gln-Gly = 100), the “Substrate specificity (%), Enzyme No. 466” value is 0%. Besides, in assay [3] (setting [6]), the “Reactivity of synthetic substrate with Enzyme No. 466 (in words)” value is “No BTGase reacts”. Besides, the “Substrate specificity, Enzyme No. 83 (reactivity of substrate with hydroxylamine)” value in assay [4] (setting [5]) was found to be 0. Moreover, the “Substrate specificity (%), Enzyme No. 83” value in assay [4] (Table 9, CBZ-Gln-Gly = 100) came out at 0%. For the same molecule, the “Reactivity of synthetic substrate with Enzyme No. 83 (in words)” value in assay [4] (setting [6]) is on record as “No BTGase reacts”.
